# Assay results taken from PubChem BioAssay (NCI).
#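 All cell lines were grown in 96-well plates and treated with compound for 48 hours. At the GI50, growth is halved. TGI denotes the concentration required for complete inhibition of growth.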
# Columns and labels:
# Test in all cases: NCI-60 cell line screen, 48 h
# [1] = test system: T-47D breast
# [2] = test system: SW-620 colon
# [3] = test system: ACHN renal
# [4] = test system: NCI/ADR-RES ovarian
# [5] = test system: HCT-15 colon
# [6] = test system: HOP-62 NSCLC
# [7] = test system: OVCAR-5 ovarian
# [8] = test system: SN12C renal
# [9] = test system: RPMI-8226 leukemia
# [10] = test system: MDA-MB-435
# [11] = test system: IGROV1 ovarian
# [12] = test system: SK-MEL-2 melanoma
# [13] = test system: HOP-92 NSCLC
# [14] = test system: TK-10 renal
# [15] = test system: NCI-H460 lung
# [16] = test system: SNB-75 CNS
# [17] = test system: UACC-257 melanoma
# [18] = test system: M14 melanoma
# [19] = test system: UACC-62 melanoma
# [20] = test system: SK-OV-3 ovarian
# [21] = test system: RXF 393 renal
# [22] = test system: SK-MEL-5 melanoma
# [23] = test system: HL-60(TB) leukemia
# [24] = test system: SF-295 CNS
# [25] = test system: COLO 205 colon
# [26] = test system: KM12 colon
# [27] = test system: EKVX NSCLC
# [28] = test system: SK-MEL-28 melanoma
# [29] = test system: MDA-MB-231 breast
# [30] = test system: OVCAR-8 ovarian
# [31] = test system: CAKI-1 renal
# [32] = test system: OVCAR-4 ovarian
# [33] = test system: NCI-H522 lung
# [34] = test system: A549 NSCLC
# [35] = test system: HS 578T breast
# [36] = test system: OVCAR-3 ovarian
# [37] = test system: 786-0 renal
# [38] = test system: K-562 leukemia
# [39] = test system: U251 CNS
# [40] = test system: CCRF-CEM leukemia
# [41] = test system: LOX IMVI melanoma
# [42] = test system: UO-31 renal
# [43] = test system: SNB-19 CNS
# [44] = test system: HCT-116 colon
# [45] = test system: HCC-2998 colon
# [46] = test system: DU-145 prostate
# [47] = test system: PC-3 prostate
# [48] = test system: SF-268 CNS
# [49] = test system: MALME-3M melanoma
# [50] = test system: NCI-H226 lung
# [51] = test system: HT29 colon
# [52] = test system: MOLT-4 leukemia
# [53] = test system: SR leukemia
# [54] = test system: MCF7 breast
# [55] = test system: NCI-H23 lung
# [56] = test system: SF-539 CNS
# [57] = test system: A498 renal
smiles,measurement,setting,value
COc1cc2c(c(OC)c1OC)-c1ncc3cc(OC)c(OC)c(OC)c3c1C2,GI50,[1],50.4 µM
same,TGI,[1],> 100 µM
same,GI50,[2],32.4 µM
same,TGI,[2],98.7 µM
same,GI50,[3],24 µM
same,TGI,[3],78.7 µM
same,GI50,[4],12.1 µM
same,TGI,[4],51.2 µM
same,GI50,[5],23.4 µM
same,TGI,[5],83.5 µM
same,GI50,[6],35.4 µM
same,TGI,[6],66.5 µM
same,GI50,[7],22.5 µM
same,TGI,[7],> 100 µM
same,GI50,[8],17.6 µM
same,TGI,[8],73.7 µM
same,GI50,[9],> 100 µM
same,TGI,[9],> 100 µM
same,GI50,[10],20.8 µM
same,TGI,[10],51 µM
same,GI50,[11],25.2 µM
same,TGI,[11],63.2 µM
same,GI50,[12],22.9 µM
same,TGI,[12],56.8 µM
same,GI50,[13],52.6 µM
same,TGI,[13],> 100 µM
same,GI50,[14],23.3 µM
same,TGI,[14],80.6 µM
same,GI50,[15],30 µM
same,TGI,[15],78.2 µM
same,GI50,[16],54.5 µM
same,TGI,[16],> 100 µM
same,GI50,[17],12.1 µM
same,TGI,[17],27.2 µM
same,GI50,[18],50.7 µM
same,TGI,[18],> 100 µM
same,GI50,[19],17.4 µM
same,TGI,[19],34 µM
same,GI50,[20],47.5 µM
same,TGI,[20],> 100 µM
same,GI50,[21],11.2 µM
same,TGI,[21],33.1 µM
same,GI50,[22],15.5 µM
same,TGI,[22],29.5 µM
same,GI50,[23],1.92 µM
same,TGI,[23],46 µM
same,GI50,[24],18.7 µM
same,TGI,[24],42.4 µM
same,GI50,[25],25.8 µM
same,TGI,[25],50.3 µM
same,GI50,[26],17.8 µM
same,TGI,[26],63 µM
same,GI50,[27],23.1 µM
same,TGI,[27],66.7 µM
same,GI50,[28],25.4 µM
same,TGI,[28],78.1 µM
same,GI50,[29],21.3 µM
same,TGI,[29],70.8 µM
same,GI50,[30],6.09 µM
same,TGI,[30],34.7 µM
same,GI50,[31],22.5 µM
same,TGI,[31],74.3 µM
same,GI50,[32],44.5 µM
same,TGI,[32],> 100 µM
same,GI50,[33],16.1 µM
same,TGI,[33],43.2 µM
same,GI50,[34],20.3 µM
same,TGI,[34],> 100 µM
same,GI50,[35],29.7 µM
same,TGI,[35],65.6 µM
same,GI50,[36],19.1 µM
same,TGI,[36],46.3 µM
same,GI50,[37],35.9 µM
same,TGI,[37],> 100 µM
same,GI50,[38],15.3 µM
same,TGI,[38],50.8 µM
same,GI50,[39],33 µM
same,TGI,[39],> 100 µM
same,GI50,[40],> 100 µM
same,TGI,[40],> 100 µM
same,GI50,[41],15.9 µM
same,TGI,[41],29.9 µM
same,GI50,[42],20.2 µM
same,TGI,[42],> 100 µM
same,GI50,[43],28.9 µM
same,TGI,[43],94.2 µM
same,GI50,[44],33.5 µM
same,TGI,[44],> 100 µM
same,GI50,[45],16.4 µM
same,TGI,[45],30.7 µM
same,GI50,[46],26.6 µM
same,TGI,[46],> 100 µM
same,GI50,[47],44.2 µM
same,TGI,[47],> 100 µM
N=C(N)c1ccc(N2CCCN(c3ccc(C(=N)N)cc3)CC2)cc1,GI50,[1],22.6 µM
same,TGI,[1],81 µM
same,GI50,[2],> 100 µM
same,TGI,[2],> 100 µM
same,GI50,[48],57.7 µM
same,TGI,[48],> 100 µM
same,GI50,[3],> 100 µM
same,TGI,[3],> 100 µM
same,GI50,[49],39.6 µM
same,TGI,[49],> 100 µM
same,GI50,[4],> 100 µM
same,TGI,[4],> 100 µM
same,GI50,[5],65.3 µM
same,TGI,[5],> 100 µM
same,GI50,[6],61.6 µM
same,TGI,[6],> 100 µM
same,GI50,[7],> 100 µM
same,TGI,[7],> 100 µM
same,GI50,[8],66.6 µM
same,TGI,[8],> 100 µM
same,GI50,[50],84.7 µM
same,TGI,[50],> 100 µM
same,GI50,[9],> 100 µM
same,TGI,[9],> 100 µM
same,GI50,[10],> 100 µM
same,TGI,[10],> 100 µM
same,GI50,[11],> 100 µM
same,TGI,[11],> 100 µM
same,GI50,[12],> 100 µM
same,TGI,[12],> 100 µM
same,GI50,[13],89.6 µM
same,TGI,[13],> 100 µM
same,GI50,[51],74.5 µM
same,TGI,[51],> 100 µM
same,GI50,[14],58.2 µM
same,TGI,[14],> 100 µM
same,GI50,[52],> 100 µM
same,TGI,[52],> 100 µM
same,GI50,[15],50.6 µM
same,TGI,[15],> 100 µM
same,GI50,[16],> 100 µM
same,TGI,[16],> 100 µM
same,GI50,[17],> 100 µM
same,TGI,[17],> 100 µM
same,GI50,[18],> 100 µM
same,TGI,[18],> 100 µM
same,GI50,[19],89 µM
same,TGI,[19],> 100 µM
same,GI50,[20],> 100 µM
same,TGI,[20],> 100 µM
same,GI50,[21],98.2 µM
same,TGI,[21],> 100 µM
same,GI50,[22],27.9 µM
same,TGI,[22],> 100 µM
same,GI50,[53],> 100 µM
same,TGI,[53],> 100 µM
same,GI50,[23],> 100 µM
same,TGI,[23],> 100 µM
same,GI50,[24],32.6 µM
same,TGI,[24],> 100 µM
same,GI50,[25],31.8 µM
same,TGI,[25],> 100 µM
same,GI50,[26],62.1 µM
same,TGI,[26],> 100 µM
same,GI50,[27],42.4 µM
same,TGI,[27],> 100 µM
same,GI50,[28],> 100 µM
same,TGI,[28],> 100 µM
same,GI50,[54],52.3 µM
same,TGI,[54],> 100 µM
same,GI50,[29],> 100 µM
same,TGI,[29],> 100 µM
same,GI50,[30],49.6 µM
same,TGI,[30],> 100 µM
same,GI50,[31],99.7 µM
same,TGI,[31],> 100 µM
same,GI50,[32],> 100 µM
same,TGI,[32],> 100 µM
same,GI50,[33],81.9 µM
same,TGI,[33],> 100 µM
same,GI50,[34],40.5 µM
same,TGI,[34],> 100 µM
same,GI50,[35],32.4 µM
same,TGI,[35],96.9 µM
same,GI50,[36],72.4 µM
same,TGI,[36],> 100 µM
same,GI50,[37],> 100 µM
same,TGI,[37],> 100 µM
same,GI50,[38],89.6 µM
same,TGI,[38],> 100 µM
same,GI50,[39],47.7 µM
same,TGI,[39],> 100 µM
same,GI50,[55],74.5 µM
same,TGI,[55],> 100 µM
same,GI50,[56],41.5 µM
same,TGI,[56],> 100 µM
same,GI50,[40],> 100 µM
same,TGI,[40],> 100 µM
same,GI50,[41],56.1 µM
same,TGI,[41],> 100 µM
same,GI50,[42],> 100 µM
same,TGI,[42],> 100 µM
same,GI50,[43],48.7 µM
same,TGI,[43],> 100 µM
same,GI50,[44],> 100 µM
same,TGI,[44],> 100 µM
same,GI50,[45],> 100 µM
same,TGI,[45],> 100 µM
same,GI50,[46],46.7 µM
same,TGI,[46],> 100 µM
same,GI50,[47],> 100 µM
same,TGI,[47],> 100 µM
same,GI50,[57],1.76 µM
same,TGI,[57],9.62 µM
